From US10010614B2, “Derivatives of GLP-1 like peptides, and uses thereof” (Novo Nordisk A/S, priority 2013, dated 2018)
Numbered stars: 1 amine (or outer) side, 2 acyl side, 3 side chain; on linkers, the order of the positions; unused ones are H or OH. Square brackets hold non-standard residues; d marks the D form. Side chains are listed from the residue outwards. Peptide text beside a SMILES is read from it. * marks the point of attachment. X4 = O=C(O)CCCCCCCCCCCCCCCCCCC(=O)N1CCC(C(=O)N[C@@H](CCC(=O)NCCCOCCOCCOCCCN*)C(=O)O)CC1; C20 diacid = O=C(O)CCCCCCCCCCCCCCCCCCC(=O)*; γGlu = O=C(O)[C@H](CCC(=O)[*:2])N[*:1]; Trx = NC[C@H]1CC[C@H](C(=O)O)CC1; Suc = O=C(CCC(=O)[*:2])[*:1]; AEEA = NCCOCCOCC(=O)O; Aib = CC(C)(N)C(=O)O

Assays:
human GLP-1 receptor [1] = biological target: T1, human GLP-1 receptor (Homo sapiens, UniProt P43220); test: GLP-1 receptor binding, competitive binding assay (125I-GLP-1, SPA) on isolated membranes;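 note: test compounds added at a range of concentrations to membranes from cells expressing the human GLP-1 receptor, scored by displacement of labelled ligand, read with WGA SPA beads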
T1 construct: expressed in transfected cells; host or cells: membranes prepared from BHK cells (parent line BHKTS13), clone FCW467-12A
T1 sequence (P43220 24-463): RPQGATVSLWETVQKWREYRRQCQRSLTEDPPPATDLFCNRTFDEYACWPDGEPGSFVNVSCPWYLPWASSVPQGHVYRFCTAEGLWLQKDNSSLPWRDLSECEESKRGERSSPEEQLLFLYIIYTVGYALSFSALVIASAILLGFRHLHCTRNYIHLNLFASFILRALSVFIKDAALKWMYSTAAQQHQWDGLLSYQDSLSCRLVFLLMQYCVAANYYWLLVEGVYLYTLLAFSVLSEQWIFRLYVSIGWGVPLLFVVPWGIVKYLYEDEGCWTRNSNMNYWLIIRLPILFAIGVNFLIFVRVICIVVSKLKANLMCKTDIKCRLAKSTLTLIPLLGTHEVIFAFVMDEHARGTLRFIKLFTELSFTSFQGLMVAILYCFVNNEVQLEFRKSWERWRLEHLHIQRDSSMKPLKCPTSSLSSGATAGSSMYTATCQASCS

human GLP-1 receptor [2] = biological target: T1, human GLP-1 receptor; test: In vitro potency, CRE luciferase reporter gene assay in BHK cells expressing the human GLP-1 receptor; assay type: cell-based; conditions: whole cell reporter gene assay, 3 h incubation, no HSA, averages of at least two replicates
Procedure: The purpose of this example is to test the activity, or potency, of the GLP-1 derivatives in vitro. The in vitro potency is the measure of human GLP-1 receptor activation in a whole cell assay.
Semaglutide was included for comparison.
In vitro potency was determined by measuring the response of the human GLP-1 receptor in a reporter gene assay. The assay was performed in a stably transfected BHK cell line that expresses the human GLP-1 receptor and contains the DNA for the cAMP response element (CRE) coupled to a promoter and the gene for firefly luciferase (CRE luciferase). When the human GLP-1 receptor is activated it results in the production of cAMP, which in turn results in the luciferase protein being expressed. When assay incubation is completed the luciferase substrate (luciferin) is added and the enzyme converts luciferin to oxyluciferin to produce bioluminescence. The luminescence is measured as the readout for the assay.
The cells used in this assay (clone FCW467-12A/KZ10-1) were BHK cells with BHKTS13 as a parent cell line. The cells were derived from a clone (FCW467-12A) that expresses the human GLP-1 receptor and were established by further transfection with CRE luciferase to obtain the current clone.
The cells were cultured at 5% CO2 in Cell Culture Medium. They were aliquoted and stored in liquid nitrogen. Before each assay an aliquot is taken up and washed twice in PBS before being suspended at the desired concentration in the assay specific buffer. For 96-well plates the suspension was made to give a final concentration of 5×10^3 cells/well.
The following chemicals were used in the assay: Pluronic F-68 (10%) (Gibco 2404), human serum albumin (HSA) (Sigma A9511), ovalbumin (Sigma A5503), DMEM w/o phenol red (Gibco 11880-028), 1 M Hepes (Gibco 15630), Glutamax 100× (Gibco 35050) and steadylite plus (PerkinElmer 6016757).
Cell Culture Medium consisted of DMEM medium with 10% FBS (Fetal Bovine Serum; Invitrogen 16140-071), 1 mg/ml G418 (Invitrogen 15140-122), 240 nM MTX (methotrexate; Sigma M9929) and 1% pen/strep (penicillin/streptomycin; Invitrogen 15140-122).
Assay Medium consisted of DMEM w/o phenol red, 10 mM Hepes and 1× Glutamax. The Assay Buffer consisted of 2% ovalbumin and 0.2% Pluronic F-68 in Assay Medium.
1) Cell stocks were thawed in a 37° C. water bath.
2) Cells were washed three times in PBS.
3) The cells were counted and adjusted to 5×10^3 cells/50 μl (1×10^5 cells/ml) in Assay Medium. A 50 μl aliquot of cells was transferred to each well in the assay plate.
4) Stocks of the test compounds and reference compounds were diluted to a concentration of 0.2 μM in Assay Buffer. Compounds were diluted 10-fold to give the following concentrations: 2×10^−7 M, […]; 2×10^−9 M, 2×10^−10 M, 2×10^−11 M, 2×10^−12 M, 2×10^−13 M, and 2×10^−14 M. 5) A 50 μl aliquot of compound or blank was transferred from the dilution plate to the assay plate. Compounds were tested at the following final concentrations: 1×10^−7 M, 1×10^−8 M; 1×10^−9 M, 1×10^−10 M, 1×10^−11 M, 1×10^−12 M, 1×10^−13 M, and 1×10^−14 M. 6) The assay plate was incubated for 3 h in a 5% CO2 incubator at 37° C. 7) The assay plate was removed from the incubator and allowed to stand at room temperature for 15 min. 8) A 100 μl aliquot of steadylite plus reagent was added to each well of the assay plate (reagent was light sensitive). 9) Each assay plate was covered with aluminum foil to protect it from light and shaken for 30 min at room temperature. 10) Each assay plate was read in a Packard TopCount NXT instrument. Calculations and Results
The data from the TopCount instrument were transferred to GraphPad Prism software. The software performs a non-linear regression (log(agonist) vs response).
A minimum of two replicates was measured for each sample. The reported values are averages of the replicates.

[3] = High HSA IC50 (nM), high serum albumin (2.0% HSA final assay concentration)
[4] = Low HSA IC50 (nM), low serum albumin (max. 0.001% final assay concentration)

Structure (SMILES)	IC50 (human GLP-1 receptor [1]; [3]) [nM]	IC50 (human GLP-1 receptor [1]; [4]) [nM]	EC50 (human GLP-1 receptor [2]) [nM]
CC[C@H](C)[C@H](NC(=O)[C@H](Cc1ccccc1)NC(=O)[C@H](CCC(=O)O)NC(=O)[C@H](CCCNC(=N)N)NC(=O)[C@H](C)NC(=O)[C@H](C)NC(=O)[C@H](CCC(N)=O)NC(=O)[C@H](CCC(=O)O)NC(=O)[C@H](CCC(=O)O)NC(=O)[C@H](CC(C)C)NC(=O)[C@H](Cc1ccc(O)cc1)NC(=O)[C@H](CO)NC(=O)[C@H](CO)NC(=O)[C@@H](NC(=O)[C@H](CC(=O)O)NC(=O)[C@H](CO)NC(=O)[C@@H](NC(=O)[C@H](Cc1ccccc1)NC(=O)[C@@H](NC(=O)CNC(=O)[C@H](CCC(=O)O)NC(=O)C(C)(C)NC(=O)[C@@H](N)Cc1c[nH]cn1)[C@@H](C)O)[C@@H](C)O)C(C)C)C(=O)N[C@@H](C)C(=O)N[C@@H](Cc1c[nH]c2ccccc12)C(=O)N[C@@H](CC(C)C)C(=O)N[C@H](C(=O)N[C@@H](CCCNC(=N)N)C(=O)NCC(=O)N[C@@H](CCCNC(=N)N)C(=O)NCC(=O)N[C@@H](CCCCNC(=O)COCCOCCNC(=O)COCCOCCNC(=O)CC[C@H](NC(=O)[C@H]1CC[C@H](CNC(=O)CCCCCCCCCCCCCCCCCCC(=O)O)CC1)C(=O)O)C(=O)N[C@@H](CO)C(=O)N[C@@H](C)C(=O)N[C@@H](CCC(=O)O)C(=O)N[C@@H](CCCCNC(=O)COCCOCCNC(=O)COCCOCCNC(=O)CC[C@H](NC(=O)[C@H]1CC[C@H](CNC(=O)CCCCCCCCCCCCCCCCCCC(=O)O)CC1)C(=O)O)C(=O)O)C(C)C [Example 13] (H-H[Aib]EGTFTSDVSSYLEEQAAREFIAWLVRGRGK([AEEA-AEEA-γGlu-Trx-C20 diacid])SAEK([AEEA-AEEA-γGlu-Trx-C20 diacid])-OH)	160	1.4	0.024
CC[C@H](C)[C@H](NC(=O)[C@H](Cc1ccccc1)NC(=O)[C@H](CCC(=O)O)NC(=O)[C@H](CCCNC(=N)N)NC(=O)[C@H](C)NC(=O)[C@H](C)NC(=O)[C@H](CCC(N)=O)NC(=O)[C@H](CCC(=O)O)NC(=O)[C@H](CCC(=O)O)NC(=O)[C@H](CC(C)C)NC(=O)[C@H](Cc1ccc(O)cc1)NC(=O)[C@H](CO)NC(=O)[C@H](CO)NC(=O)[C@@H](NC(=O)[C@H](CC(=O)O)NC(=O)[C@H](CO)NC(=O)[C@@H](NC(=O)[C@H](Cc1ccccc1)NC(=O)[C@@H](NC(=O)CNC(=O)[C@H](CCC(=O)O)NC(=O)C(C)(C)NC(=O)[C@@H](N)Cc1c[nH]cn1)[C@@H](C)O)[C@@H](C)O)C(C)C)C(=O)N[C@@H](C)C(=O)N[C@@H](Cc1c[nH]c2ccccc12)C(=O)N[C@@H](CC(C)C)C(=O)N[C@H](C(=O)N[C@@H](CCCNC(=N)N)C(=O)NCC(=O)N[C@@H](CCCCNC(=O)COCCOCCNC(=O)COCCOCCNC(=O)CC[C@H](NC(=O)[C@H]1CC[C@H](CNC(=O)CCCCCCCCCCCCCCCCCCC(=O)O)CC1)C(=O)O)C(=O)NCC(=O)N[C@@H](CCC(=O)O)C(=O)NCC(=O)N1CCC[C@H]1C(=O)N[C@@H](C)C(=O)N[C@@H](CCCCNC(=O)COCCOCCNC(=O)COCCOCCNC(=O)CC[C@H](NC(=O)[C@H]1CC[C@H](CNC(=O)CCCCCCCCCCCCCCCCCCC(=O)O)CC1)C(=O)O)C(=O)O)C(C)C [Example 16] (H-H[Aib]EGTFTSDVSSYLEEQAAREFIAWLVRGK([AEEA-AEEA-γGlu-Trx-C20 diacid])GEGPAK([AEEA-AEEA-γGlu-Trx-C20 diacid])-OH)	602	1.4	0.025
CC[C@H](C)[C@H](NC(=O)[C@H](Cc1ccccc1)NC(=O)[C@H](CCC(=O)O)NC(=O)[C@H](CCCNC(=N)N)NC(=O)[C@H](C)NC(=O)[C@H](C)NC(=O)[C@H](CCC(N)=O)NC(=O)[C@H](CCC(=O)O)NC(=O)[C@H](CCC(=O)O)NC(=O)[C@H](CC(C)C)NC(=O)[C@H](Cc1ccc(O)cc1)NC(=O)[C@H](CO)NC(=O)[C@H](CO)NC(=O)[C@@H](NC(=O)[C@H](CC(=O)O)NC(=O)[C@H](CO)NC(=O)[C@@H](NC(=O)[C@H](Cc1ccccc1)NC(=O)[C@@H](NC(=O)CNC(=O)[C@H](CCC(=O)O)NC(=O)C(C)(C)NC(=O)[C@@H](N)Cc1c[nH]cn1)[C@@H](C)O)[C@@H](C)O)C(C)C)C(=O)N[C@@H](C)C(=O)N[C@@H](Cc1c[nH]c2ccccc12)C(=O)N[C@@H](CC(C)C)C(=O)N[C@H](C(=O)N[C@@H](CCCNC(=N)N)C(=O)NCC(=O)N[C@@H](CCCNC(=N)N)C(=O)NCC(=O)N[C@@H](CCCCNC(=O)COCCOCCNC(=O)COCCOCCNC(=O)COCCOCCNC(=O)COCCOCCNC(=O)COCCOCCNC(=O)COCCOCCNC(=O)CC[C@H](NC(=O)[C@H]1CC[C@H](CNC(=O)CCCCCCCCCCCCCCCCCCC(=O)O)CC1)C(=O)O)C(=O)NCC(=O)NCC(=O)N[C@@H](CO)C(=O)N[C@@H](CCCCNC(=O)COCCOCCNC(=O)COCCOCCNC(=O)COCCOCCNC(=O)COCCOCCNC(=O)COCCOCCNC(=O)COCCOCCNC(=O)CC[C@H](NC(=O)[C@H]1CC[C@H](CNC(=O)CCCCCCCCCCCCCCCCCCC(=O)O)CC1)C(=O)O)C(=O)O)C(C)C [Example 24] (H-H[Aib]EGTFTSDVSSYLEEQAAREFIAWLVRGRGK([AEEA-AEEA-AEEA-AEEA-AEEA-AEEA-γGlu-Trx-C20 diacid])GGSK([AEEA-AEEA-AEEA-AEEA-AEEA-AEEA-γGlu-Trx-C20 diacid])-OH)	84	0.67	0.007
CC[C@H](C)[C@H](NC(=O)[C@H](Cc1ccccc1)NC(=O)[C@H](CCC(=O)O)NC(=O)[C@H](CCCNC(=N)N)NC(=O)[C@H](C)NC(=O)[C@H](C)NC(=O)[C@H](CCC(N)=O)NC(=O)[C@H](CCC(=O)O)NC(=O)[C@H](CCC(=O)O)NC(=O)[C@H](CC(C)C)NC(=O)[C@H](Cc1ccc(O)cc1)NC(=O)[C@H](CO)NC(=O)[C@H](CO)NC(=O)[C@@H](NC(=O)[C@H](CC(=O)O)NC(=O)[C@H](CO)NC(=O)[C@@H](NC(=O)[C@H](Cc1ccccc1)NC(=O)[C@@H](NC(=O)CNC(=O)[C@H](CCC(=O)O)NC(=O)C(C)(C)NC(=O)[C@@H](N)Cc1c[nH]cn1)[C@@H](C)O)[C@@H](C)O)C(C)C)C(=O)N[C@@H](C)C(=O)N[C@@H](Cc1c[nH]c2ccccc12)C(=O)N[C@@H](CC(C)C)C(=O)N[C@H](C(=O)N[C@@H](CCCNC(=N)N)C(=O)NCC(=O)N[C@@H](CCCNC(=N)N)C(=O)NCC(=O)N[C@@H](CCCCNC(=O)CCC(=O)NCCCOCCOCCOCCCNC(=O)CC[C@H](NC(=O)C1CCN(C(=O)CCCCCCCCCCCCCCCCCCC(=O)O)CC1)C(=O)O)C(=O)NCC(=O)NCC(=O)N[C@@H](CO)C(=O)N[C@@H](CCCCNC(=O)CCC(=O)NCCCOCCOCCOCCCNC(=O)CC[C@H](NC(=O)C1CCN(C(=O)CCCCCCCCCCCCCCCCCCC(=O)O)CC1)C(=O)O)C(=O)O)C(C)C [Example 21] (H-H[Aib]EGTFTSDVSSYLEEQAAREFIAWLVRGRGK([Suc-X4])GGSK([Suc-X4])-OH; N-terminus and C-terminus assumed)	177	1.3	0.019
